Reference: publication PMC12671080, “Antimicrobial activities of quaternary phosphonium-type small molecular antibacterial materials against methicillin-resistant Staphylococcus aureus” (Microbiology Spectrum, 2025)
Read-outs that look alike come from different tables or passages of the source. Blank lines part the entries; values can stand above or below the compound they belong to.

Key:
[1] = Cytotoxicity assay (CCK-8); conditions: mouse
Method: (§1) The cytotoxicity of the nanocomposite was evaluated by CCK-8 assay using a commercial kit (CK04; Dojindo, Japan). […] Cell viability was calculated according to the following formula: cell viability (%) = (Ae − Ab)/(Ac − Ab) × 100% (Ab:OD of blank wells at 450 nm, Ac:OD of control wells at 450 nm, Ae:OD of experimental wells at 450 nm).

MRSA (ATCC 43300) = experiment: MIC test, modified broth microdilution; assay type: cell-based; conditions: Staphylococcus aureus, 24 h
Method: (§2) All bacteria cells were first pre-grown overnight on blood agar plates at 37°C in a bacteriological incubator. Next, a single colony was transferred into fresh Muller Hinton broth (MHB) medium and harvested by centrifugation during the exponential growth phase, before being resuspended in sterile 0.9% physiological saline. Finally, bacterial cells were adjusted to the 0.5 McFarland standard (1.5 × 10^8 CFU/mL), and the solution was diluted in MHB to the predetermined concentrations.
(§3) MICs of all materials against MRSA, E. coli, and P. aeruginosa strains were determined using a modified broth microdilution method ([28]). Briefly, log-phase cultures (1.0 × 10⁶ CFU/mL) of each strain were inoculated into 96-well microtiter plates preloaded with serially diluted test compounds.

[2] = system: Escherichia coli (E. coli, ATCC 25922); experiment: MIC test, modified broth microdilution; assay type: cell-based; conditions: read-out: Minimal inhibitory concentration (MIC) against E. coli
Method: as §2, §3

[3] = system: Pseudomonas aeruginosa (P. aeruginosa, ATCC 27853); experiment: MIC test, modified broth microdilution; assay type: cell-based; conditions: ATCC27853, 24 h
Method: as §2, §3

MRSA [4] = experiment: Agar diffusion test; assay type: cell-based, Staphylococcus aureus; conditions: 10 µL of 512 µg/mL on 6.0 mm disc, overnight 37°C
Method: Bacterial suspensions (1.5 × 10^8 CFU/mL) were spread onto Mueller-Hinton (M-H) agar plates using sterile cotton swabs to form a uniform carpet. A 10 µL solution of each of the five nanomaterials at a concentration of 512 µg/mL, along with PBS, was carefully applied to the surface of filter paper discs (6.0 mm in diameter), which were then placed onto M-H agar plates and incubated overnight at 37°C. Inhibition zones appeared as transparent halos on the agar surface.

MRSA biofilm [5] = experiment: Resazurin staining, metabolic activity of bacteria within biofilms; assay type: cell-based, Staphylococcus aureus; conditions: 24 h
Method: The metabolic activity of bacteria within biofilms was tested using resazurin (Sigma Aldrich, St. Louis, MO, USA), as previous report with slightly modified ([33]). Bacterial suspensions were exposed to graded concentrations (range 4–32 μg/mL) of [PTPP]·I in MHB broth for 24 h at 37°C. After incubation, the wells were washed three times with PBS and 0.01% final concentration of resazurin (Sigma Aldrich, St. Louis, MO, USA) was added, followed by an incubation for 1 h. Finally, the absorbance was detected in a Multi-mode detection platform (Molecular Devices, SpectraMax i3x) in fluorescence mode with excitation at 570 nm and emission at 600 nm. Bacterial suspensions without [PTPP]·I were set as a positive control, and pure MHB broth was set as a blank control, which were taken as 100% and 0% metabolic activity, respectively. Metabolic activity was calculated according to the following formula: metabolic activity (%) = (ΔAbs of sample − ΔAbs of blank control)/(ΔAbs of positive control − ΔAbs of blank control); ΔAbs = absorbance at 570 nm − absorbance at 600 nm.

MRSA [6] = experiment: Protein leakage assay (Bradford); assay type: cell-based, Staphylococcus aureus; conditions: 32 µg/mL (2 × MIC), 24 h
Method: The quantitative detection of protein leakage of bacteria was carried out by protein leakage assay using a Bradford Protein Assay Kit (P0006; Beyotime, Nantong, China). […] The bacterial solution without [PTPP]·I was used as a control. The mixture was incubated in a shaker at 37°C for 24 h and then centrifuged at 10,000 rpm at 4°C for 10 min. The supernatant was immediately collected, and protein detection reagent was added to determine the optical density (OD 600) using a Microplate Reader (Thermo Fisher Scientific, Multiskan GO) and finally converted to protein concentration values based on the standard curve.

L929 cells = experiment: Cytotoxicity assay (CCK-8); conditions: at the concentration of MIC, 24 h, CCK-8
Method: as §1

MRSA [7] = experiment: Bacterial growth curve study (OD600); assay type: cell-based, Staphylococcus aureus
Method: Bacterial growth curve of [PTPP]·I against MRSA cells was determined by the method reported previously ([29]). […] The bacterial solution without [PTPP]·I was used as a positive control. OD values were continuously measured for 36 h at hourly intervals to construct bacterial growth curves.

MRSA [8] = experiment: Time-kill kinetics assay (colony counting); assay type: cell-based, Staphylococcus aureus
Method: The bactericidal kinetics assay was carried out with a few minor modifications as previously stated to reveal the antimicrobial effectiveness of [PTPP]·I over time ([30]). […] Bacteria were sampled every 1 h from 0 h to 6 h, diluted in a gradient, and incubated in Luria-Bertani (LB) plates at 37°C for 24 h. Finally, plates with around 30 to 300 colonies were counted and CFU/mL for each time point was calculated to construct time-kill curves. After 3 h of treatment with different concentrations of [PTPP]·I, the bacterial solution was put into PBS for several consecutive 10-fold dilutions, and 100 µL of the mixture was uniformly spread on LB agar plates and then allowed to dry for a little while. The LB agar plates were placed in a constant-temperature incubator at 37°C for 24 h, and then the colonies on the LB agar plates were counted and photographed to observe the changes in the morphology and size of MRSA colonies.

MRSA [9] = experiment: SEM of bacterial morphology and bacterial biofilm; assay type: cell-based, Staphylococcus aureus; conditions: 24 h
Method: Scanning electron microscopy was used to observe bacterial morphology and bacterial biofilm formation. […] Samples were then washed with PBS and dehydrated in a graded ethanol series (30%, 50%, 70%, 80%, 90%, 95%, and 100%). After lyophilization and gold spraying, the MRSA cells were visualized by SEM (SU8100, Hitachi, Tokyo, Japan). Bacterial biofilms were subjected to SEM as previously reported with slight modifications ([31]). Cell crawling pieces were incubated in 1 mL of MRSA solution (1 × 10^6 CFU/mL) in a 24-well plate. […] After 24 h of incubation at 37°C, the samples were processed as described above and the MRSA biofilms on the cell crawling pieces were observed by scanning electron microscopy.

MRSA biofilm [10] = experiment: Crystal violet staining of biofilm formation; assay type: cell-based, Staphylococcus aureus; conditions: 24 h
Method: Crystal violet staining was performed by the method reported previously to measure the anti-biofilm effect of [PTPP]·I ([32]). […] A parallel study was also performed with LB broth as a blank control and the MRSA suspension was cultured in an empty well as a positive control. After incubation, the non-adhered bacteria were removed by gently washing with PBS at least three times, and the adherent biofilm was fixed with methanol for 15 min and stained with 0.1% (wt/vol) crystal violet for another 15 min. Then the excess crystal violet was removed by repeatedly washing with PBS until the blank control wells were colorless. Finally, crystal violet bound to the biofilm was dissolved in 500 µL 95% ethanol and added into 96-well plates to measure the absorbance at 595 nm using a Microplate Reader (Thermo Fisher Scientific, Waltham, MA, USA).

MRSA [11] = experiment: Reactive oxygen species assay (DCFH-DA); assay type: cell-based, Staphylococcus aureus; conditions: 0.5 h
Method: The level of bacterial ROS induced by [PTPP]·I was detected by DCFH-DA assay (Reactive Oxygen Species Assay Kit, S0033S, Beyotime), as previously reported ([18]). Briefly, MRSA (1 × 10^8 CFU/mL) was inoculated with 10 µM of DCFH-DA in a centrifuge tube at 37°C for 30 min for probe loading. […] The bacterial solution without [PTPP]·I was included to use as a control. The samples were washed three times with sterile saline solution (0.9% NaCl). Finally, the level of bacterial total ROS was measured as the relative fluorescence intensity of the probes, which was detected in a Multi-mode detection platform (Molecular Devices, SpectraMax i3x) in fluorescence mode with excitation at 488 nm and emission at 525 nm.

[12] = L929 cells, Cell viability of L929 cells, at the concentration of MIC, 24 h, CCK-8
[13] = broth microdilution, 37°C, read-out: Minimal inhibitory concentration (MIC) against MRSA
[14] = ATCC25922, broth microdilution, 37°C, 24 h

MIC (MRSA (ATCC 43300); [13]): ≤ 64 µg/mL
MIC [2, 14]: ≤ 512 µg/mL
MIC ([3]; broth microdilution, 37°C, 24 h, read-out: Minimal inhibitory concentration (MIC) against P. aeruginosa): 8000 µg/mL
Compound: CC[P+](c1ccccc1)(c1ccccc1)c1ccccc1 [[ETPP]·I, ethyl-triphenyl-phosphonium iodide]
viability at 24 h [1, 12]: ~90%

MIC (MRSA (ATCC 43300); [13]): ≤ 64 µg/mL
MIC [2, 14]: ≤ 512 µg/mL
Compound: CC(C)[P+](c1ccccc1)(c1ccccc1)c1ccccc1 [[ITPP]·I, i-propyl-triphenyl-phosphonium iodide]
viability at 24 h [1, 12]: ~95%

MIC (MRSA (ATCC 43300); [13]): 16 µg/mL
MIC [2, 14]: ≤ 512 µg/mL
Compound: CCCCC[P+](c1ccccc1)(c1ccccc1)c1ccccc1 [[PTPP]·I, n-pentyl-triphenyl-phosphonium iodide]
Inhibition halos against MRSA (MRSA [4]): obvious inhibition halos
Metabolic activity of biofilm bacteria, of positive control (MRSA biofilm [5]; 1/2 × MIC): more than 50%
Metabolic activity of intra-film bacteria, of positive control (MRSA biofilm [5]; 1 × MIC): 1%
Protein leakage relative to control group (MRSA [6]): about 2.6 times
Cell viability of L929 cells (L929 cells): 97%
viability at 24 h [1, 12]: > 97%
Bacterial growth (OD600) (MRSA [7]; 2 µg/mL (1/8 × MIC) to 16 µg/mL (1 × MIC)): significantly inhibited
Lag phase of MRSA growth (MRSA [7]; at 1/2 × MIC): up to 10 h
Time to achieve survival rate less than 1% (MRSA [8]; 1 × MIC): 6 h
Reduction of viable count (MRSA [8]; 1 × MIC, within 1 h): approximately 1 log10 CFU/mL
Survival rate (MRSA [8]; 4 × MIC for 2 h): less than 1%
Biofilm on cell crawling pieces by SEM (MRSA [9]; 16 µg/ml (1 × MIC)): no biofilm but only the residue of bacterial disruption
Bacterial morphology by SEM (MRSA [9]; 32 µg/mL (2 × MIC)): membranes/walls of MRSA cells became rough and concave, holes appeared
Reduction of biofilm biomass (MRSA biofilm [10]; 1/2 × MIC): 35.4%
Reduction of biofilm biomass (biofilm inhibition rate) (MRSA biofilm [10]; 1 × MIC): 96.6%
ROS level elevation vs the control group (MRSA [11]; 1 × MIC): 20%
ROS level elevation vs the control group (MRSA [11]; 2 × MIC): 30%
ROS level elevation vs the control group (MRSA [11]; 4 × MIC): 141%

The remaining lines, values behind:

Compound: CCCC[P+](c1ccccc1)(c1ccccc1)c1ccccc1 [[BTPP]·I, n-butyl-triphenyl-phosphonium iodide]
viability at 24 h [1, 12]: ~95%
MIC (MRSA (ATCC 43300); [13]): ≤ 32 µg/mL
MIC [2, 14]: ≤ 512 µg/mL

Compound: C[P+](c1ccccc1)(c1ccccc1)c1ccccc1 [[MTPP]·I, methyl-triphenyl-phosphonium iodide]
viability at 24 h [1]: ~90%
MIC (MRSA (ATCC 43300); read-out: Minimal inhibitory concentration (MIC) against MRSA, broth microdilution, 37°C, 24 h): 128 µg/mL
MIC ([2]; ATCC25922, 24 h): ≤ 512 µg/mL
MIC ([3]; read-out: Minimal inhibitory concentration (MIC) against P. aeruginosa, broth microdilution, 37°C, 24 h): 8000 µg/mL
